Measured values as given in article PMC7504360 (International Journal of Molecular Sciences, 2020).
Read-outs that look alike come from different tables or passages of the source. Square brackets hold non-standard residues; d marks the D form. Peptide text beside a SMILES is read from it.

Assays:
[1] = test system: MDRAB 12010 (A. baumannii CCARM 12010)
Source text: (§1) Two strains of gram-negative bacteria, namely E. coli (KCTC 1682) and A. baumannii (KCCM 40203) from the Korean Collection for Type Cultures (KCTC) (Taejon, Korea) and Korean Culture Center of Microorganisms (KCCM) (Seoul, South Korea). Escherichia coli K1 strain RS218 (O18:K1:H7) was a gift from Prof. Jang-Won Yoon in Kangwon National University (Chuncheon, South Korea). Multidrug-resistant gram-negative bacteria (E. coli CCARM 1229, E. coli CCARM 1238, A. baumannii CCARM 12010, and A. baumannii CCARM 12220) were obtained from the Culture Collection of Antibiotic-Resistant Microbes (CCARM) at Seoul Women’s University (Seoul, South Korea).
(§2) Briefly, the microplates were inoculated with two-fold serial dilutions of each peptides in Mueller–Hinton (MH) media and then seeded with log-phase culture of aforementioned bacterial suspensions (2 × 10^5 CFU/mL). The microplates were incubated for 16 h at 37 °C, and absorbance was read at 600 nm using microplate reader SpectraMAX (Molecular Devices, San Jose, CA, USA).

[2] = test system: MDREC 1238 (E. coli CCARM 1238)
Source text: as §1, §2

[3] = test system: MDREC 1229 (E. coli CCARM 1229)
Source text: as §1, §2

E. Coli = test system: E. Coli
Source text: as §1, §2

[4] = test system: MDRAB 12220 (A. baumannii CCARM 12220)
Source text: as §1, §2

[5] = test system: A. baumannii (KCCM 40203)
Source text: as §1, §2

[6] = test system: sheep red blood cells (sRBCs); experiment: Hemolytic activity; type: cell-based
Description: The hemolytic activity of all Pro-peptides were tested against sheep red blood cells (sRBCs) as described in previous reports. Fresh sRBCs were washed three times with phosphate-buffered saline (PBS) followed by centrifugation for 5 min at 2500 rpm at 4 °C. Peptides (0.2 to 100 μM) in PBS were incubated with 4% (v/v) sRBCs for 1 h at 37 °C. The contents were then centrifuged for 5 min at 1000 × g. The absorbance of the supernatant at 405 nm was used as a measure of hemolysis, and three times independent measurements were averaged. As a control, 100% hemolysis was obtained by treating sRBCs with melittin.

RAW264.7 cells = experiment: Cytotoxicity, WST-8 cell proliferation assay; type: cell-based, mouse; conditions: 24 h, WST-8, 450 nm, mean of three experiments
Description: Murine RAW264.7 macrophage cells were purchased from Korean Cell Line Bank (Seoul, South Korea). The cells were cultured in Dulbecco modified Eagle medium (DMEM) (Thermo Fischer Scientific Inc., MA, USA) supplemented with 10% fetal bovine serum, 100 U/mL penicillin, and […] streptomycin at 37 °C in a humidified 5% CO2 incubator. The cytotoxicity of peptides against RAW264.7 cells was determined using WST-8 Cell Proliferation Assay Kit (Biomax Co.,Ltd, Seoul, South Korea). Briefly, cells (1 × 10^5) were seeded in 96-well plated and then treated with 3.125, 6.25, 12.5, 25, and 50 μM of respective peptides for 24 h followed by addition of 10 μL of the WST-8 reagent for another 3 h incubation at 37 °C. The color intensity was read at 450 nm using a microplate reader.

[7] = test system: Standard gram-negative bacteria; conditions: table row printed 'Standard gram-negative bacteria'; MH media, 2 × 10^5 CFU/mL, 16 h at 37 °C, absorbance 600 nm; average of three measurements
Source text: as §1, §2

chymotrypsin = experiment: Protease stability assay (antimicrobial activity after protease digestion); type: in vitro ADME; conditions: peptide–enzyme 10,000:1, PBS, 6 h at 37 °C preincubation, then E. coli and A. baumannii 2 × 10^5 CFU/mL, 16 h at 37 °C, 600 nm, repeated three times
Description: (§3) For stability analysis, all Pro-peptides at their MICs were incubated with trypsin and chymotrypsin at the ratio of 10,000:1 (peptide–enzyme) in PBS for 6 h at 37 °C. After incubation, 100 μL of peptide-protease mixture was added to the 100 μL bacterial suspension (E. coli and A. baumannii, 2 × 10^5 CFU/mL) and further incubated for 16 h at 37 °C. Melittin was used as standard peptide, and bacterial suspension without peptide and protease served as control. The experiment was repeated three times, and the extent of bacterial growth was measured at 600 nm using a microplate reader.

trypsin = experiment: as above; type: in vitro ADME; conditions: peptide–enzyme 10,000:1, PBS, 6 h at 37 °C preincubation, then E. coli and A. baumannii 2 × 10^5 CFU/mL, 16 h at 37 °C, 600 nm, repeated three times
Description: as §3

[8] = LPS neutralization, limulus amebocyte lysate (LAL) assay; type: biochemical, Escherichia coli O111:B4; conditions: 50 μM peptide, 20 ng/mL LPS, 30 min at 37 °C, LAL chromogenic kit, 405 nm; triplicate
Description: The LPS-neutralizing activity of all peptides was determined using the Pierce LAL chromogenic endotoxin quantitation kit (ThermoFisher Scientific, MA, USA). All peptides including standard (Polymixin B) at varying concentrations (3.12, 6.25, 12.5, 25, and 50 μM in endotoxin-free water) were allowed to bind with 20 ng/mL of LPS in a 96-well plate for 30 min at 37 °C. To this, an equal volume (10 μL) of LAL reagent was added and incubated for 10 min at 37 °C and then 20μL of LAL chromogenic substrate was added. After 15 min incubation at 37 °C, the reaction was stopped by 25% acetic acid and the reduction in yellow color formation due to the substrate was measured at 405 nm on an absorbance microplate reader. The experiment was conducted in triplicate, and the changes in absorbance due to peptide-LPS interaction are indicated as percent LPS neutralization.

all bacterial strains = experiment: Mean MIC over all bacterial strains (GM); type: cell-based; conditions: mean MIC of all bacterial strains of Table 2
Description: as §2

Compound	Minimal Inhibitory Concentration (MIC100) ([1]; CCARM 12010, 16 h)	Minimal Inhibitory Concentration (MIC100) ([2]; CCARM 1238, 16 h)	Minimal Inhibitory Concentration (MIC100) ([3]; CCARM 1229, 16 h)	Minimal Inhibitory Concentration (MIC100) (E. Coli; 16 h)	Minimal Inhibitory Concentration (MIC100) ([4]; CCARM 12220, 16 h)	Minimal Inhibitory Concentration (MIC100) ([5]; KCCM 40203, 16 h)	HC10 (peptide concentration inducing 10% hemolysis) ([6]; red cells of sheep, 1 h)	survival rate of RAW264.7 cells (RAW264.7 cells; 25 μM)	survival rate of RAW264.7 cells (RAW264.7 cells; 50 μM)	Minimal Inhibitory Concentration (MIC100) [7]	peptide concentration up to which bacterial growth was not inhibited in the presence of protease (chymotrypsin)	other results
CC[C@@H](C)[C@@H](NC(=O)[C@@H](C)NC(=O)[C@@H](CC(C)C)NC(=O)[C@@H](Cc1c[nH]c2ccccc12)NC(=O)[C@@H](CC(C)C)NC(=O)[C@H](N)CCCNC(=N)N)C(=O)N[C@H](Cc1c[nH]c2ccccc12)C(=O)N[C@H](CCCNC(=N)N)C(=O)N[C@H](CCCNC(=N)N)C(N)=O [Pro9-3D] (H-[dR][dL][dW][dL][dA][dI][dW][dR][dR]-NH2)	8 µM	4 µM	8 µM	4 µM	8 µM	4 µM	200 µM	68%	51.8%			
CC[C@H](C)[C@H](NC(=O)[C@H](C)NC(=O)[C@H](CC(C)C)NC(=O)[C@H](Cc1c[nH]c2ccccc12)NC(=O)[C@H](CC(C)C)NC(=O)[C@H](CCCNC(=N)N)NC(=O)[C@@H](N)CCCNC(=N)N)C(=O)N[C@@H](Cc1c[nH]c2ccccc12)C(=O)N[C@@H](CCCNC(=N)N)C(=O)N[C@@H](CCCNC(=N)N)C(N)=O [Pro10-1] (H-RRLWLAIWRR-NH2)								90%	87%	16 µM	> 64 µM	Minimal Inhibitory Concentration (MIC100) ([1]; MDRAB 12010, MH media, 2 × 10^5 CFU/mL, 16 h at 37 °C, absorbance 600 nm, average of three measurements): 8 µM; Minimal Inhibitory Concentration (MIC100) ([2]; MDREC 1238, MH media, 2 × 10^5 CFU/mL, 16 h at 37 °C, absorbance 600 nm, average of three measurements): 32 µM; Minimal Inhibitory Concentration (MIC100) ([3]; MDREC 1229, MH media, 2 × 10^5 CFU/mL, 16 h at 37 °C, absorbance 600 nm, average of three measurements): 8 µM; Minimal Inhibitory Concentration (MIC100) (E. Coli; table row printed 'E. Coli', MH media, 2 × 10^5 CFU/mL, 16 h at 37 °C, absorbance 600 nm, average of three measurements): 16 µM; Minimal Inhibitory Concentration (MIC100) ([4]; MDRAB 12220, MH media, 2 × 10^5 CFU/mL, 16 h at 37 °C, absorbance 600 nm, average of three measurements): 16 µM; Minimal Inhibitory Concentration (MIC100) ([5]; A. baumannii, MH media, 2 × 10^5 CFU/mL, 16 h at 37 °C, absorbance 600 nm, average of three measurements): 8 µM; hemolysis ([6]; 100 μM peptide, 4% (v/v) sRBCs in PBS, 1 h at 37 °C, absorbance 405 nm, three measurements averaged): no hemolytic activity; HC10 (peptide concentration inducing 10% hemolysis) ([6]; heparinized sheep red blood cells, 200 μM entered when no detectable hemolysis was observed at 100 μM): 200 µM; peptide concentration up to which bacterial growth was not inhibited in the presence of protease (trypsin): > 64 µM
polymyxin B [reference compound]												inhibition of the activation of LPS (LPS neutralization) [8]: 67.4%
CC[C@H](C)[C@H](NC(=O)[C@H](C)NC(=O)[C@H](CC(C)C)NC(=O)[C@H](Cc1c[nH]c2ccccc12)NC(=O)[C@H](CC(C)C)NC(=O)[C@@H](N)CCCNC(=N)N)C(=O)N[C@@H](Cc1c[nH]c2ccccc12)C(=O)N[C@@H](CCCNC(=N)N)C(=O)N[C@@H](CCCNC(=N)N)C(N)=O [Pro9-3] (H-RLWLAIWRR-NH2)	16 µM	32 µM	16 µM	16 µM	16 µM	16 µM	200 µM	95%	94%	16 µM	> 64 µM	
CC[C@H](C)[C@H](NC(=O)CN)C(=O)NCC(=O)N[C@@H](C)C(=O)N[C@H](C(=O)N[C@@H](CC(C)C)C(=O)N[C@@H](CCCCN)C(=O)N[C@H](C(=O)N[C@@H](CC(C)C)C(=O)N[C@H](C(=O)N[C@H](C(=O)NCC(=O)N[C@@H](CC(C)C)C(=O)N1CCC[C@H]1C(=O)N[C@@H](C)C(=O)N[C@@H](CC(C)C)C(=O)N[C@H](C(=O)N[C@@H](CO)C(=O)N[C@@H](Cc1c[nH]c2ccccc12)C(=O)N[C@H](C(=O)N[C@@H](CCCCN)C(=O)N[C@@H](CCCNC(=N)N)C(=O)N[C@@H](CCCCN)C(=O)N[C@@H](CCCNC(=N)N)C(=O)N[C@@H](CCC(N)=O)C(=O)N[C@@H](CCC(N)=O)C(N)=O)[C@@H](C)CC)[C@@H](C)CC)[C@@H](C)O)[C@@H](C)O)C(C)C)C(C)C [Melittin, reference compound]												GM (geometric mean of MIC values of all bacterial strains) (all bacterial strains): 12.0 µM
